These results are taken from ChEMBL document CHEMBL1135510, “Common and selective molecular determinants involved in metabotopic glutamate receptor agonist activity” (J Med Chem, 2002).

The target in assay [1] is T1, Metabotropic glutamate receptor 2 (Homo sapiens, UniProt Q14416). Nature of the assay: Binding affinity at Metabotropic glutamate receptor 2. The arrangement: species or system Rattus norvegicus.
Target sequence in this assay (Q14416 whole entry): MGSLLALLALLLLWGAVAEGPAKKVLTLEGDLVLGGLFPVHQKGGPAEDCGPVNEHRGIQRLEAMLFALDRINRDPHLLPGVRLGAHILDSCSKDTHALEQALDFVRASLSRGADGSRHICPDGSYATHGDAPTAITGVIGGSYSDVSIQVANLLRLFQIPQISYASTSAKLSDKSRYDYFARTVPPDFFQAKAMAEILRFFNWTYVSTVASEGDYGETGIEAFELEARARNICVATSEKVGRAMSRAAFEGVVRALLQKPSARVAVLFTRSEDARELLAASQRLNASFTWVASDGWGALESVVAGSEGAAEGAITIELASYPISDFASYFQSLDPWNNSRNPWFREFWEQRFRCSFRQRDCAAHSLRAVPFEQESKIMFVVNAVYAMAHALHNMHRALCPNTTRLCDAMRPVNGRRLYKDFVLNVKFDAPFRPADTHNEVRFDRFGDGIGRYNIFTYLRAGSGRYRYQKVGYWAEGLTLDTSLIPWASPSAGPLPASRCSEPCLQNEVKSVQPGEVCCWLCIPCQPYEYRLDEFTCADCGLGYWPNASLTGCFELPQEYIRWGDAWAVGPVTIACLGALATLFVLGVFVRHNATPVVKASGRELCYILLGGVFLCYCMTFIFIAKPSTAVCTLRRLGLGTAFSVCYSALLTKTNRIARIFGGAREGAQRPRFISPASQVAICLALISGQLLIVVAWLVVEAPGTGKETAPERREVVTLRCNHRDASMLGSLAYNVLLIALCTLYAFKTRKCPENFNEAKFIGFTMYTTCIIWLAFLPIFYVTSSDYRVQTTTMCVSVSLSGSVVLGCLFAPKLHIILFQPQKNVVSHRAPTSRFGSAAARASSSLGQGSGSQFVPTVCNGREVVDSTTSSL
In assay [2] the target is Metabotropic glutamate receptor 1 (Rattus norvegicus, UniProt P23385). As to the kind of experiment: Inhibition of binding to rat mGluR1a (metabotropic glutamate receptor) expressed in HEK-293 cells. It counts as cell-based, HEK293.
Sequence of Metabotropic glutamate receptor 1 (P23385 whole entry): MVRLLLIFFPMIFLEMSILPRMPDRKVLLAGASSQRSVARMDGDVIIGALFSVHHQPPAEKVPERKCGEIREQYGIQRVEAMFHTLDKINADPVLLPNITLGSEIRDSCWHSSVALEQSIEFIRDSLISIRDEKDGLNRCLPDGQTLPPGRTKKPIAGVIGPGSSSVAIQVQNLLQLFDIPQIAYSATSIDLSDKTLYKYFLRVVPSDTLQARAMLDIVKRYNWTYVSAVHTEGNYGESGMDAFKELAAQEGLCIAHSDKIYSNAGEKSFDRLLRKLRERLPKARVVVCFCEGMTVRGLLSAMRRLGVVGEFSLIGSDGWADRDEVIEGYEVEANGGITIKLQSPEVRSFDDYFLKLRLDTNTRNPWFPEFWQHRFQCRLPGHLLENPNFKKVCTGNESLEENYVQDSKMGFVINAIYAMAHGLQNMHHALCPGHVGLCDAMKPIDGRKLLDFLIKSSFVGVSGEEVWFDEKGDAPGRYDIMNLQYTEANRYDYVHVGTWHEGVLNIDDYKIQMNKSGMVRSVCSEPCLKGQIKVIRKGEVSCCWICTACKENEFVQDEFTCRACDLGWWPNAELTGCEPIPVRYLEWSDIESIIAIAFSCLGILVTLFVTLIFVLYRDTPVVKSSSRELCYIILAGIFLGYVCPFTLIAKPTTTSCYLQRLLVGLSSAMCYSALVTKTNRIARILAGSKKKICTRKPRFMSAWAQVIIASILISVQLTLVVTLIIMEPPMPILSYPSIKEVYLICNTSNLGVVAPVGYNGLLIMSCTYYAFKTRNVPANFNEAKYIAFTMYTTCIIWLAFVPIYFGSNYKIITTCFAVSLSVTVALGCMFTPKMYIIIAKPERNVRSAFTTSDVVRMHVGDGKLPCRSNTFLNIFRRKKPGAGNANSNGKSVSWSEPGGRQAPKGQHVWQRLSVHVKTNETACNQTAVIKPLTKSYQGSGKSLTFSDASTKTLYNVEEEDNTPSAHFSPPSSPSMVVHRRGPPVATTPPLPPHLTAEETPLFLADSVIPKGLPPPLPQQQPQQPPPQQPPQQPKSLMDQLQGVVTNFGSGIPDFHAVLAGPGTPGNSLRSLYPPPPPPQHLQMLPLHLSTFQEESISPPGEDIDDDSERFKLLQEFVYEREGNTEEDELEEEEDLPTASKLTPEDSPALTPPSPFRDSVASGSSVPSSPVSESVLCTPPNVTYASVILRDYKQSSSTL
Assay [3] concerns the target T2, Metabotropic glutamate receptor 4 (Homo sapiens, UniProt Q14833). As to the kind of experiment: Binding affinity at Metabotropic glutamate receptor 4. Details: species or system Rattus norvegicus.
Assay [4] has as its target T1, Metabotropic glutamate receptor 2. As to the kind of experiment: Potency at Metabotropic glutamate receptor 2, measured as the ratio of EC50 to IC50; No effect at 1 mM.
Target sequence in this assay (Q14416 19-872 limits assumed): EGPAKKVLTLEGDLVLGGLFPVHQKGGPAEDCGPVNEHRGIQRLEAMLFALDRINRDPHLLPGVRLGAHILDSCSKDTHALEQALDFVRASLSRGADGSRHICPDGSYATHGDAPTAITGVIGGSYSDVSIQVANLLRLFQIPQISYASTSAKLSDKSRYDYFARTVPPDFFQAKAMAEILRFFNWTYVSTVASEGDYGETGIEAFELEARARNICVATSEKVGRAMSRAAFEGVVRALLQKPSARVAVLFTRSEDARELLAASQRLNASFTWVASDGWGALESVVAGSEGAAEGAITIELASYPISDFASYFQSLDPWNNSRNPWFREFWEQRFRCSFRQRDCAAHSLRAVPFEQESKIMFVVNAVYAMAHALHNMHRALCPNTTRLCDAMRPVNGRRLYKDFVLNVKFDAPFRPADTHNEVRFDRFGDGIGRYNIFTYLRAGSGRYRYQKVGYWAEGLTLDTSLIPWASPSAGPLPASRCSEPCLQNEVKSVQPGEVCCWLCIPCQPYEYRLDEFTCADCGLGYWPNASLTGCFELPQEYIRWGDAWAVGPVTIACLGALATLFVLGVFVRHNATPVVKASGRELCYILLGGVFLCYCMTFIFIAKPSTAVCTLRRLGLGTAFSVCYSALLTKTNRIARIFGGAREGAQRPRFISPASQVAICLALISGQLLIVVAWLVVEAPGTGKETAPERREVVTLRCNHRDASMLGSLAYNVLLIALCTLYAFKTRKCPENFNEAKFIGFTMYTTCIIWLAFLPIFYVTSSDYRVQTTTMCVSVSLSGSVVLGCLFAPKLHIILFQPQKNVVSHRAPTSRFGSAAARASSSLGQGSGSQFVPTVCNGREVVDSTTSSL
The target in assay [5] is Metabotropic glutamate receptor 1 (Homo sapiens) (UniProt Q13255). As to the kind of experiment: Potency at Metabotropic glutamate receptor 1, measured as the ratio of EC50 to IC50; No effect at 1 mM.
Sequence of Metabotropic glutamate receptor 1 (Homo sapiens) (Q13255 19-1194 limits assumed): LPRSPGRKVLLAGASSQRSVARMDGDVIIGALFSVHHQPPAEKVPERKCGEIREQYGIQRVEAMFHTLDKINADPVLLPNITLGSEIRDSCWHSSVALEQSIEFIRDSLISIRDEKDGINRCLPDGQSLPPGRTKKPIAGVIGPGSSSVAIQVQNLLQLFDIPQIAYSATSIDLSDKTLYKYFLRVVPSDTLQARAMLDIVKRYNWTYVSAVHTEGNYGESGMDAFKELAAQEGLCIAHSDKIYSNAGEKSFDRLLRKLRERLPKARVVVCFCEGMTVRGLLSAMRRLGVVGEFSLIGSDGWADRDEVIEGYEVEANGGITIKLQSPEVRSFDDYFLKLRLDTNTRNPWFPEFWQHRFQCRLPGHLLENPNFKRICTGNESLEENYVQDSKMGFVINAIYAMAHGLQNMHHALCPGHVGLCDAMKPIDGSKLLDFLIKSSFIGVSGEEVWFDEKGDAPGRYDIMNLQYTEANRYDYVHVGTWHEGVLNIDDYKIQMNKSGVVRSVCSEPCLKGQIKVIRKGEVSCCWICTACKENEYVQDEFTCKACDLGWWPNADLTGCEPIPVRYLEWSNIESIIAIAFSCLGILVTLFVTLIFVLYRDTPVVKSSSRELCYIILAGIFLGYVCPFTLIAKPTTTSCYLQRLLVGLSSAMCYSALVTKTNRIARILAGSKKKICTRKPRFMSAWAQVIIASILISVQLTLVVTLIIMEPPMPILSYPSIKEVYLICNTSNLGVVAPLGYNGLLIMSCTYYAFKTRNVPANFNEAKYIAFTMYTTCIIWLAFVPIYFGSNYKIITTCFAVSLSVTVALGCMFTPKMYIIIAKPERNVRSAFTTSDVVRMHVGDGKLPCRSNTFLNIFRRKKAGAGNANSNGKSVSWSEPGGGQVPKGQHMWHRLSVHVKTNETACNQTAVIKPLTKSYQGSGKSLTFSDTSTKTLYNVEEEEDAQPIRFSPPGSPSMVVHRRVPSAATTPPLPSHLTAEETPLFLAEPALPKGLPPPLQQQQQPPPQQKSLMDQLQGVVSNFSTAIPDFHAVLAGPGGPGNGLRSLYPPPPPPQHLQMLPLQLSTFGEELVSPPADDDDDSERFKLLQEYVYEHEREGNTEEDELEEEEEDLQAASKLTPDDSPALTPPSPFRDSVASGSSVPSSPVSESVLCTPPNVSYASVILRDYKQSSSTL
Assay [6] has the same target. Nature of the assay: Potency at metabotropic glutamate receptor 1, measured as the ratio of EC50 to IC50; No effect at 1 mM.
Assay [7] concerns the target T1, Metabotropic glutamate receptor 2. As to the kind of experiment: Potency at metabotropic glutamate receptor 2, measured as the ratio of EC50 to IC50; No effect at 1 mM.
Target sequence in this assay (Q14416 19-872 limits assumed): as the sequence (Q14416 19-872 limits assumed) above
The target in assay [8] is T2, Metabotropic glutamate receptor 4. Nature of the assay: Potency at metabotropic glutamate receptor 4, measured as the ratio of EC50 to IC50; No effect at 1 mM.

SMILES strings stand for the structures.

T2 sequence (Q14833 whole entry): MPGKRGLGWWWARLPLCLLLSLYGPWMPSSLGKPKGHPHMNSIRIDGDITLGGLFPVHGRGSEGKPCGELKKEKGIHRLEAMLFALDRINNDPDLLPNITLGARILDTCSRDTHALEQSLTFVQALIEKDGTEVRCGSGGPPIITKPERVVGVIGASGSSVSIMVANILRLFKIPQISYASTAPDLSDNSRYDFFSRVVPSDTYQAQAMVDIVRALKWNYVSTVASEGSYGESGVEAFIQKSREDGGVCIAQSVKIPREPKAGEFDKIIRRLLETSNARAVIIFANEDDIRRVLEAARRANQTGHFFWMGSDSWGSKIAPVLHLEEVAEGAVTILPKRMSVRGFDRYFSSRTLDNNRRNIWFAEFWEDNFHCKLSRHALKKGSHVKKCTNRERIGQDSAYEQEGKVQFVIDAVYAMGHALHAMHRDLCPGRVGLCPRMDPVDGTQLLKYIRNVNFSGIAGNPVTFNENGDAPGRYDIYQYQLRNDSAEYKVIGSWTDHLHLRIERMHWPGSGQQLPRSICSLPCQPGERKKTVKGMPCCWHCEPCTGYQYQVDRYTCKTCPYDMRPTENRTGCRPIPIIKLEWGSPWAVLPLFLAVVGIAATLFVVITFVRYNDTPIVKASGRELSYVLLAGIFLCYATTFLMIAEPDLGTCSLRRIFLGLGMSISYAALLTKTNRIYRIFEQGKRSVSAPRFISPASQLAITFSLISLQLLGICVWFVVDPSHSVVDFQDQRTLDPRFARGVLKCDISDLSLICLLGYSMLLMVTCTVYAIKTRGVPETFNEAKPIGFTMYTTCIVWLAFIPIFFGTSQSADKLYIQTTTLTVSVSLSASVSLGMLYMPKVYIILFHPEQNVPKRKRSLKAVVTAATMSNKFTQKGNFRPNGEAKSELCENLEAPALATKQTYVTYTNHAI

For `N[C@H](C(=O)O)C1[C@@H](C(=O)O)[C@@H]1C(=O)O` (some centres undefined), the Ki in assay [1] was 0.11 µM; in assay [2] it was 77 µM.

Regarding `N[C@H](C(=O)O)c1ccc(C(=O)O)cc1`, the Ki in assay [2] worked out at 3.7 µM; in assay [3], 838 µM.

Take `N[C@@H](Cn1oc(=O)[nH]c1=O)C(=O)O` [QUISQUALATE]: the Ki in assay [1] was determined as 113 µM; in assay [3] it was 112 µM.

As for `N[C@@]1(C(=O)O)C[C@H](C(=O)O)[C@H](C(=O)O)C1`, the NE entry in assay [4] and in assay [5] was “No effect at 1 mM” each time.

For `N[C@H](C(=O)O)c1ccc(P(=O)(O)O)cc1`, the NE result in assay [4] and in assay [5] was “No effect at 1 mM” each time.

Regarding `N[C@@H](CCP(=O)(O)O)C(=O)O`, the values for the Ki in assay [1], in assay [2] and in assay [3] were 129 µM, over 1000 µM and 0.47 µM, respectively. Moreover, the NE result in assay [6] is “No effect at 1 mM”.

In the case of `N[C@H](C(=O)O)c1cc(O)cc(O)c1`, the NE result in assay [7] and in assay [8] was “No effect at 1 mM” throughout. The values for the Ki in assay [1] and in assay [2] were over 1000 µM and 0.9 µM, respectively.

In assay [1], `N[C@@]1(C(=O)O)CC[C@H]2[C@H](C(=O)O)[C@H]21` showed a Ki of 0.013 µM.
